Read-outs that look alike come from different tables or passages of the source.
Legend:
5-LO = target: T1, 5-LO (Homo sapiens, UniProt P09917); experiment: Cell-free activity assay of human recombinant 5-LO; assay type: biochemical; parameters: made in house; host or cells: E. coli (BL21), plasmid pT3-5-LO
T1 sequence (P09917 1-674): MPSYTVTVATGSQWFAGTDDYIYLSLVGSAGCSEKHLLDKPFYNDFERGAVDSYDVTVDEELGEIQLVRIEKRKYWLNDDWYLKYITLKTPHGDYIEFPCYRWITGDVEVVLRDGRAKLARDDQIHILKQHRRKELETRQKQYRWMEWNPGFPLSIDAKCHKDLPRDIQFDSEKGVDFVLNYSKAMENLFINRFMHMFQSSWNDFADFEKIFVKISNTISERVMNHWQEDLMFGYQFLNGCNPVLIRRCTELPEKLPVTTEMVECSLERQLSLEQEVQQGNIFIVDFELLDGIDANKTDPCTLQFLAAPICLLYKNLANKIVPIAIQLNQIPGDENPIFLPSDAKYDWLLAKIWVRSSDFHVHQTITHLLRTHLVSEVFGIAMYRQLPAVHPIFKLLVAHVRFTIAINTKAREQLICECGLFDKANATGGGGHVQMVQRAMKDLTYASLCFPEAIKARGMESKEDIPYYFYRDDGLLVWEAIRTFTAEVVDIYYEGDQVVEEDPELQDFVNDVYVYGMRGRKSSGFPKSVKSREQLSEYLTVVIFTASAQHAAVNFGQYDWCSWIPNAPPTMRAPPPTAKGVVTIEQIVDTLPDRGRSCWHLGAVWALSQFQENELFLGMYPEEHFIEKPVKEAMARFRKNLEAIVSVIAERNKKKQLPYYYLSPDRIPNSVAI
Description: E. coli(BL21) was transformed with pT3-5-LO plasmid, and recombinant 5-LO protein was expressed at 30° C. as described.^34 Cells were lysed in 50 mM triethanolamine/HCl pH 8.0, 5 mM EDTA, 1 mM phenylmethanesulphonyl fluoride, soybean trypsin inhibitor (60 μg/mL), and lysozyme (1 mg/mL), homogenized by sonication (3×15 s), and centrifuged at 40,000×g for 20 min at 4° C. The 40,000×g supernatant (S40) was applied to an ATP-agarose column to partially purify 5-LO as described.^70 Aliquots of semi-purified 5-LO (0.5 μg) were diluted with 1 mL ice-cold PBS containing 1 mM EDTA. Samples were pre-incubated with the test compound or vehicle (0.1% DMSO) with or without Triton X-100 and/or 1 mM DTT, as indicated. After 10 min at 4° C., samples were pre-warmed for 30 s at 37° C., and 2 mM CaCl2 plus the indicated concentrations of arachidonic acid (AA) were added to start the formation of 5-LO products. After 10 min, the reaction was stopped by addition of one volume of ice-cold methanol, and the formed 5-LO products were analyzed by RP-HPLC as described.^71 5-LO products include the all-trans isomers of LTB4 (tr-LTB4 isomers) as well as 5(S)-hydroperoxy-6-trans-8,11,14-cis-eicosatetraenoic acid (5-HPETE) and its corresponding alcohol 5(S)-hydroxy-6-trans-8,11,14-cis-eicosatetraenoic acid (5-HETE). For phosphatidylcholine competition assays (3 or 30 μg/ml PC) samples were pre-incubated on ice with β-lapachone with or without 1 mM DDT or vehicle (0.1% DMSO) for 10 minutes. After addition of 2 mM CaCl2) and 20 μM AA the incubation was continued for 10 minutes at 37° C. and after that stopped with methanol.
Data are expressed as mean±S.E.M. IC50 values were calculated from averaged measurements at 6 different concentrations of the compound by nonlinear regression using GraphPad Prism software (San Diego, Calif.) one site binding competition. Statistical evaluation of the data was performed by one-way ANOVA followed by a Tukey-Kramer post-hoc test for multiple comparisons respectively. A p value<0.05 (*) was considered significant.

[1] = mouse, in vivo, iv, 100 mg/kg
HL-60 cells = experiment: HL-60 cell viability with and without DMSO differentiation (Alamar Blue); assay type: cell-based; settings: Homo sapiens, 48 hours, n=1
Description: Cells were fixed with […] BD fix buffer while vortexing. […] After the required incubation time, cells were washed and incubated for another hour with goat anti-rabbit Alexa fluor 488 antibody. Cells are then washed and resuspended in PBS and acquired by LSRFortessa™ flow cytometer (BD Biosciences, USA) with a 488 nm laser, a 505 nm long-pass filter and a 530/30 nm band-pass filter (for FITC detection). Data was analyzed using the FlowJo software. […] Cells were treated with varying concentration of β-lapachone for a time period of 48 hours. Cell death was analyzed using standard Alamar Blue assay. Data is represented after being normalized to the vehicle control.

[2] = Dynamic light scattering, colloidal aggregation; assay type: physicochemical; settings: relevant concentrations
Description: Dynamic light scattering (Zetasizer Nano S, Malvern, UK) was used to determine compound colloidal aggregation potential and kinetic solubility. The particle sizes were measured at 25° C. […] Colloidal aggregation was measured through sequential dilutions. Solubility was assessed at 25 μM after 0 and 30 minutes.

Q: For `CC1(C)CCC2=C(O1)c1ccccc1C(=O)C2=O` [Compound 1, 3,4-dihydro-2,2-dimethyl-2H-naphtho[1,2-b]pyran-5,6-dione], which IC50 (5-LO; 3 μg/mL phosphatidylcholine, n=3, read-out: IC50 (3 μg/mL, PC), competition assay with phosphatidylcholine) is on record?
A: The IC50 was 100 nM.

Q: What about the IC50 (5-LO; 30 μg/mL phosphatidylcholine, n=3, read-out: IC50 (30 μg/mL, PC), competition assay with phosphatidylcholine) of the same molecule?
A: The IC50 was 1000 nM.

Q: What about the IC50 (5-LO; 1 mM DTT, 0.01% Triton X100, n=3, read-out: IC50 (with Triton X100), inhibition of 5-LO) of the same molecule?
A: Its IC50 is 90 nM.

Q: And the IC50 (5-LO; 1 mM DTT, no Triton X100, n=3, read-out: IC50 (without Triton X100), inhibition of 5-LO)?
A: Its IC50 is 120 nM.

Q: And the IC50 (5-LO; 1 mM dithiothreitol (DTT), n=3, read-out: IC50 (with DTT), inhibition of 5-LO in a cell-free assay)?
A: The IC50 was 240 nM.

Q: What about the IC50 (5-LO; absence of DTT, n=3, read-out: IC50 (without DTT), inhibition of 5-LO in a cell-free assay) of the same molecule?
A: Its IC50 is > 30000 nM.

Q: What about the “Effect of arachidonic acid concentration on potency” value (5-LO; arachidonic acid 2.5-40 μM) of the same molecule?
A: The value was “only to minor alterations of the potency”.

Q: And the “5-LO modulation in absence of dithiothreitol” value (5-LO; cell-free, no DTT, up to 30 μM)?
A: Its value is “negligible 5-LO modulation”.

Q: What about the “5-LO activity after wash-out” value (5-LO; wash-out of compound) of the same molecule?
A: The value was “could be reinstated upon wash-out”.

Q: And the “Toxicity at higher doses” value [1]?
A: The value was “toxicity”.

Q: What about the IC50 (HL-60 cells; DMSO-stimulated HL-60 cells overexpressing 5-LO, read-out: IC50 (differentiated), HL-60) of the same molecule?
A: Its IC50 is 180 nM.

Q: And the IC50 (HL-60 cells; control HL-60 cells, read-out: IC50 (control), HL-60)?
A: The IC50 was 390 nM.

Q: And the Colloidal aggregation [2]?
A: Its Colloidal aggregation is “no colloidal aggregation”.

From patent US20210161855A1, “5-LIPOXYGENASE ANTAGONISTS” (INSTITUTO DE MEDICINA MOLECULAR JOÃO LOBO ANTUNES, priority 2017, published 2021)
